# Experiments:
# Assay type in all cases: cell-based
# [1] = test system: chick periosteal osteogenesis (CPO) cultures; assay: Histological evaluation of bone formation in chick periosteal osteogenesis (CPO) cultures
# Protocol: (§1) In this experiment, the chick periosteal osteogenesis (CPO) model was used to determine if bone loss is induced by dioxin. The CPO model has been described in detail previously (Nijweide, Proc. Kon. Ned. Akad. Wet. 1975. C78:410-417) and was prepared for the purposes of this experiment as set out below.
# (§2) Following sacrifice, two triangular calvarial explants were removed by cutting along the central suture, transversely along the posterior suture and laterally above the eye in 17-day-old embryonic chicks. The ectocranial periosteum (outer curved surface) was peeled off using forceps under microscopic magnification and folded so that the surface originally facing bone was in apposition to itself as described previously (Tenenbaum et al., Calcif Tissue Int. 34:76-79). The folded explant was then placed on a Millipore filter (HA 0.45 μm), which was transferred onto a stainless steel grid resting in the center well of an organ culture dish (Falcon Plastics, Lincoln Park, N.J., USA) that was filled with culture media to a level such that the culture was supported at the gas-liquid interface (˜1.5 ml of media). Three cultures were placed in each dish which was then covered and incubated at 37° C. in a humidified atmosphere containing 5% CO2 in air. Media changes occurred on days 2 and 4, and the medium was comprised of BGJb medium (Fitton-Jackson Modification) with L-glutamine (Gibco, Grand Island, N.Y., USA) and supplemented with 2% antibiotic (10,000 units/ml Penicillin G sodium, 10,000 μg/ml Streptomycin sulfate in 0.85% saline) (Gibco), 10% fetal calf serum (Gibco), 10^−7M dexamethasone (Sigma, St. Louis, Mo., USA), 10 mM β-glycerophosphate, and 300 μg/ml L-ascorbate (Gibco).
# For the purposes of this investigation, the effects of a potent aryl hydrocarbon, TCDD (2,3,7,8-tetrachlorodibenzo-p-dioxin or dioxin) on the early events occurring during osteogenesis were determined. The CPO model traverses a number of phases of osteogenesis. […]
# [2] = test system: chick periosteal osteogenesis (CPO) cultures; assay: Alkaline phosphatase activity (APA) in CPO cultures
# Protocol: as §1, §2
# (§3) For the purposes of this investigation, the effects of a potent aryl hydrocarbon, TCDD (2,3,7,8-tetrachlorodibenzo-p-dioxin or dioxin) on the early events occurring during osteogenesis were determined. The CPO model traverses a number of phases of osteogenesis. Therefore, it was possible to design temporal or “window” experiments in order to determine the phases of osteogenesis that were sensitive to TCDD and/or resveratrol. […] All cultures were maintained for the entire 6-day period. The compounds were administered over four different temporal phases, as outlined below in the time-line diagram: a) days 0-6; b) days 0-2; c) days 2-4 or d) days 4-6 (Note: all cultures were stopped at 6 days). Results were compared to e) vehicle alone over days 0-6. [drawing 1]
# On day 6, the culture dishes were placed on ice and individual cultures were transferred to separate test tubes and stored at −20° C. for further analysis.
# CPO cultures were assayed for AP activity using paranitrophenol-phosphate (pN-p) as the substrate (Demetriou et al. J Biol Chem. 1996. 271(22)12755-61). The intensity of the colour change was evaluated using a Titertek® Multiskan® MCC/340 Spectrophotometer (Flow Laboratories, Mississauga, ON, Canada) and compared to a standard curve obtained from a serial dilution of 10 mM pN with bicarbonate buffer (pH 7.4) in flat bottomed Titertek 96-well plates as described previously (Demetriou et al., 1996, supra). The reaction was stopped with 100 μl of 0.2N NaOH and pN-p levels read at 405 nm on the Titertek. Calcium incorporation was assayed in the pellets produced from centrifugation of the homogenized CPO cultures following hydrolysis in 500 μl of 0.5N HCl and then measured using atomic absorption spectrophotometry (Sukhu et al. Endocrinology. 1997. 138 (8):3269-75).
# [3] = test system: chick periosteal osteogenesis (CPO) cultures; assay: RT-PCR mRNA levels of bone proteins (AP, BSP, collagen type I, OPN) in CPO cultures
# Protocol: as §3
# The isolation of total RNA from periosteal cultures to determine affect of TCDD on message levels of bone proteins was accomplished using the QIAGEN Rneasy® kit and QIAShredder® (Hilden, Germany) according to the manufacturer's instructions. Total RNA (2 μg) was reverse transcribed using SuperScript II™ RNase H^− Reverse Transcriptase (Gibco BRL, City Country). PCR reactions were performed in […] reactions at a cycle number ensuring a linear amplification profile (BSP, 5 min at 94° C., 30 cycles [of 20 sec at 94° C., 20 sec at 55° C., 20 sec at 72° C.]; Collagen 5 min at 94° C., 30 cycles [of 20 sec 94° C. 20 sec 58° C., 20 sec 72° C.]; AP 5 min at 94° C., 30 cycles [of 20 sec 94° C., 20 sec 59° C., 20 sec 72° C.]; OPN 5 min at 85° C., 5 min at 94° C., 25 cycles [20 sec at 94° C., 20 sec at 60° C., 20 sec at 72° C.] 7 min at 72° C.). The oligonucleotides for BSP (sense: 5′-[…]-3′; antisense: 5′-[…]-3′) AP (sense: 5′-[…]-3′; antisense: 5′-[…]-3′), Collagen (sense: 5′-[…]-3′; antisense: 5′-[…]-3′); OPN (sense 5′-[…]-3′; antisense 5′-[…]-3′) were synthesized by Life Technologies (Gibco BRL, Rockville, Md.). PCR products were electrophoresed on 1.5 (wt/vol) % agarose gels with 0.1 μg/ml ethidium bromide. The gels were visualized on an UV transilluminator and photographed using 667 Polaroid film. The inverse images of the photographs were analyzed by densitometry. All values were normalized for the internal control, β-actin.
# [4] = test system: rat SBMC (stromal bone marrow cell) line; assay: Mineralization (Alizarin Red staining) in rat SBMC line
# Protocol: Cells for the rat SBMC model were obtained from Dr. Sandu Pitaru (Tel Aviv University, Israel) and maintained in T25 tissue culture flasks (Sarstedt, Newton, N.C., USA) in a medium composed of αMEM+RNA+DNA+antibiotic supplemented with 10% fetal calf serum, 10 mM β-glycerophosphate, 10^−8M dexamethasone, 50 μg/ml vitamin C and 3 ng/ml fibroblast growth factor. The media were changed every 48 hours and the cells subcultured when almost confluent (approximately every 72 hrs). Cells were grown for a period of 1-2 weeks to allow for formation of mineralized bone nodules.
# SBMC cultures were assayed for AP activity using paranitrophenol-phosphate (pN-p) as the substrate as described above for CPO cultures. In some cases, AP activity was also measured using direct staining of SBMC cultures in 96 well plates as described previously (Tenenbaum et al., Anat Rec. 1995. 242(2):200-10). Mineralization in the SBMC cultures was determined using Alizarin Red staining in situ that was assessed with the Titertek spectrophotometer set at 525 nm.
# [5] = test system: rat bone marrow cell line (RBMCL); assay: APA in rat bone marrow cell line (RBMCL)
# [6] = resveratrol 4×10^−8M to 3×10^−5M with TCDD
smiles,measurement,setting,value
"Clc1cc2c(cc1Cl)Oc1cc(Cl)c(Cl)cc1O2 [TCDD, 2,3,7,8-tetrachlorodibenzo-p-dioxin]",bone formation (histology),"[1]; TCDD-treated CPO cultures, FIG. 1B",obvious changes in bone formation
same,reduction in AP activity,"[2]; 10^−9M TCDD alone during days 0-2, p<0.05 vs. vehicle",53%
same,change in AP activity,[2]; 10^−9M TCDD alone during days 2-4 or 4-6,did not significantly alter AP activity
same,reduction in AP activity versus vehicle alone,[2]; 10^−9M TCDD over a 6-day period,80%
same,reduction in mRNA for BSP,"[3]; TCDD, p<0.05",~4 fold
same,reduction of mRNA levels for OPN,"[3]; TCDD, p<0.05",about 40%
same,reduction of mRNA levels for type I collagen in comparison to control,"[3]; TCDD, p<0.05",50%
same,reduction of message levels for AP in comparison to control,"[3]; TCDD, p<0.05",about 50%
same,"reduction in mineralization (Alizarin Red Staining), dose dependence",[4]; TCDD 4.12×10^−11M to 1.52×10^−12M,dose dependant reduction in mineralization
same,decrease in mineralization,[4]; in the presence of TCDD,approximately 75%
same,inhibition of osteogenic differentiation (APA),"[5]; TCDD, 6 day cultures, in comparison to CPO and RBMC",lower dose of TCDD was able to inhibit osteogenic differentiation
"Oc1ccc(C=Cc2cc(O)cc(O)c2)cc1 [resveratrol, 3,5,4′-trihydroxystilbene]",reversal of TCDD effect on bone formation (histology),"[1]; cultures treated with both TCDD and resveratrol, FIG. 1D",complete reversal of the TCDD effect
same,bone formation (histology),"[1]; resveratrol alone, FIG. 1C",large deposits of bone similar to the control cultures
same,change in AP activity,"[2]; 10^−6M resveratrol alone over days 0-6, 0-2, 2-4 or 4-6",No significant change in AP activity
same,increase in AP activity in comparison to TCDD alone,"[2]; resveratrol 10^−5M, 10^−6M and 10^−7M with TCDD, FIG. 2a",2-4 fold
same,reversal of TCDD inhibition of BSP mRNA,[3]; TCDD with resveratrol,reversed completely
same,mRNA levels for OPN,[3]; both TCDD and resveratrol,restored
same,mRNA levels for Type I collagen,"[3]; both TCDD and resveratrol, versus control",identical levels
same,message for BSP,[3]; resveratrol alone,partially down-regulate
same,message for collagen,[3]; resveratrol alone,partially down-regulate
same,effect on TCDD-induced decrease in mineralization,[4]; resveratrol with TCDD,attenuated
same,APA in comparison to control,[5]; [6],appeared to stimulate APA
same,inhibition of TCDD-mediated inhibition of osteoblastic differentiation (APA),[5]; [6],able to inhibit TCDD-mediated inhibition of osteoblastic differentiation
